# In patent US20100273748A1, “ANTIMICROBIAL THERAPY” (priority 2006, published 2010):
# Assays:
# TLR2 protein = test: Western blot of keratinocyte extracts; type: cell-based, human; conditions: 1,25D3 100 nM, monolayer keratinocyte extracts
# Method: (§1) Western Blot. Primary keratinocytes were stimulated with 1,25D3 (100 nM) or the vehicle for 24 hours and subsequently lysed in ice-cold lysis buffer (1% Triton-X in PBS containing proteinase inhibitors). After centrifugation, equal amounts of protein were mixed with loading buffer (0.25M Tris HCL, 10% SDS, 10% glycerol, 5% β-mercaptoethanol) and loaded onto a 10% Tris-Tricine gel (GeneMate, Kaysville, Utah). After separation, proteins were blotted onto a PVDF membrane (Millipore, Billerica, Mass.) and blocked in 5% milk (BioRad) in TBS 0.1% Tween20 for 1 h at RT. After washings in TBS 0.1% Tween20, membranes were stained with a rabbit polyclonal anti-CD14 (Abcam, Cambridge, Mass.) or an anti TLR2 antibody (eBioscience), washed again in TBS 0.1% Tween20 and reprobed with a HRP-coupled goat anti-rabbit antibody (DakoCytomation, Glostrup, Denmark). Stained protein was visualized using the Western Lightning® system (Perkin Elmer, Boston, Mass.).
# CD14 protein = test: Western blot of keratinocyte extracts; type: cell-based, human
# Method: as §1, with “Primary keratinocytes were stimulated with 1,25D3 (100 nM) or the vehicle for 24 hours and subsequently lysed in ice-cold lysis buffer (1% Triton-X in PBS containing proteinase inhibitors).” left out
# CD14 = test: qPCR in differentiated epidermal constructs; type: cell-based, human; conditions: 1,25D3 100 nM
# Method: (§2) Organotypic culture. Epiderm™ human skin-like tissue constructs were obtained from MatTek (Ashland, Mass.) and cultured according to manufacturer's instructions. Skin constructs were cultured in maintenance media (EPI-100-MM, MatTek) and stimulated with Malp-2 (0.1 μg/ml) for 24 hours in the presence of 1,25D3 (100 nM). Skin constructs were cut after stimulation and transferred to Trizol® (Invitrogen, Carlsbad, Calif.) for RNA extraction or immediately frozen in Tissue-Tek® (Sakura, Torrance, Calif.) for immunostaining.
# (§3) Real-time RT-PCR (qPCR). RNA was extracted from cells, epidermal constructs or tissue using Trizol® and 1 μg RNA was reverse transcribed using iScript® (BioRad, Hercules, Calif.). Expression of cathelicidin and GAPDH was analysed by real-time RT-PCR. […] Fold induction relative to the vehicle treated control in in vitro experiments was calculated using the comparative Ct method, where ΔΔCt is ΔCt(stimulant)-ΔCt(vehicle), ΔCt is Ct(gene)-Ct(GAPDH) and Ct is the cycle at which an arbitrary detection threshold is crossed. For quantification of transcript abundance in tissue samples target gene expression was normalized to GAPDH and compared to non-treated or non-injured skin.
# TLR2 = test: qPCR in differentiated epidermal constructs; type: cell-based, human; conditions: 1,25D3 100 nM
# Method: as §2, §3
# [1] = Topical treatment of healthy volunteers' skin, clinical and histological inflammation; type: in vivo, human; conditions: single topical application of 1,25D3
# Method: Patients and treatments. Human skin wounds were collected following informed consent by inducing 5 mm full-thickness wounds in volunteers (n=5) under aseptic conditions with local anesthesia as described. At 24 hours after incision, 4 mm punch biopsies were taken from the site of injury and immediately fixed in formalin for immunostaining or frozen in liquid N2 for subsequent RNA isolation. Intact skin from healthy volunteers served as control (n=4). To examine the effects of topical 1,25D3, healthy skin of volunteers (n=7) was treated once topically with 1,25D3 (1.0 mM) and left under occlusion for 4 days. Vehicle treated contralateral skin served as a control. After treatment, skin biopsies were obtained from both sites, fixed in formalin 10% and embedded in paraffin for immunostaining. All treatments and sample acquisitions, including skin biopsies, were approved by the committees on investigations involving human subjects.
# cathelicidin = test: Cathelicidin protein immunostaining in NHEK; type: cell-based, human; conditions: butyrate (2 mM) and 1,25D3 (10^−8M), 24 hours
# Method: Panel a: NHEKs were stimulated with 1,25D3 (10^−9-10^−7 M) in the presence of the HDAC inhibitor butyrate (BUT; 2 mM) for 24 hours. mRNA abundance was determined by real-time qPCR for cathelicidin and glyceraldehyde-3-phosphate dehydrogenase and normalized to vehicle-treated controls. […] Data shown are means (7SD) of the results from a single stimulation experiment performed in triplicates and are representative of at least three independent experiments (**P<0.01; ***P<0.001; two-way analysis of variance). Panel b: The HDAC inhibitor TSA (200 ng ml^−1) induces cathelicidin in the presence of 1,25D3 (10^−8M). Expression of cathelicidin is dependent on a functional VDR, as pretreatment with the VDR antagonist ZK159222 (10^−7 M) inhibits induction of cathelicidin with BUT (2 mM) in the presence of 1,25D3 (10^−8 M) after 24 hours. Expression of cathelicidin was determined by qPCR as described in Panel a. (*P<0.05; Student's t-test). […] Cells were stained with a polyclonal anti-LL-37 antibody (followed by an FITC-coupled secondary antibody) and nuclei detected with 4,6-diamidino-2-phenylindole (Bar=30 μM). […] NHEKs were stimulated with 1,25D3 (10^−8M) in combination with the HDAC inhibitor BUT (2 mM) for 24 hours, cells harvested and cell lysates co-incubated with S. aureus DmprF, and bacterial growth monitored over time to determine antimicrobial activity. […]
# S. aureus DmprF = test: Antimicrobial activity of keratinocyte lysates (bacterial growth, OD600); type: cell-based, Staphylococcus aureus
# Method: Panel a: NHEKs were stimulated with 1,25D3 (10^−9-10^−7 M) in the presence of the HDAC inhibitor butyrate (BUT; 2 mM) for 24 hours. mRNA abundance was determined by real-time qPCR for cathelicidin and glyceraldehyde-3-phosphate dehydrogenase and normalized to vehicle-treated controls. […] Data shown are means (7SD) of the results from a single stimulation experiment performed in triplicates and are representative of at least three independent experiments (**P<0.01; ***P<0.001; two-way analysis of variance). Panel b: The HDAC inhibitor TSA (200 ng ml^−1) induces cathelicidin in the presence of 1,25D3 (10^−8M). Expression of cathelicidin is dependent on a functional VDR, as pretreatment with the VDR antagonist ZK159222 (10^−7 M) inhibits induction of cathelicidin with BUT (2 mM) in the presence of 1,25D3 (10^−8 M) after 24 hours. Expression of cathelicidin was determined by qPCR as described in Panel a. (*P<0.05; Student's t-test). Panel c: Increased transcript correlates with enhanced cathelicidin protein expression after HDAC inhibitor and 1,25D3 stimulation. NHEKs grown on chamber slides were stimulated with the vehicle, 1,25D3 (10^−8M), BUT (2 mM), or the combination for 24 hours. Cells were stained with a polyclonal anti-LL-37 antibody (followed by an FITC-coupled secondary antibody) and nuclei detected with 4,6-diamidino-2-phenylindole (Bar=30 μM). […] NHEKs were stimulated with 1,25D3 (10^−8M) in combination with the HDAC inhibitor BUT (2 mM) for 24 hours, cells harvested and cell lysates co-incubated with S. aureus DmprF, and bacterial growth monitored over time to determine antimicrobial activity. Media not containing cell lysates or containing cell lysates from unstimulated cells were used as controls.
compound,measurement,setting,value
"C=C1/C(=C\C=C2/CCC[C@]3(C)[C@@H]([C@H](C)CCCC(C)(C)O)CC[C@@H]23)C[C@@H](O)C[C@@H]1O [1,25D3, 1,25(OH)2 vitamin D3]",TLR2 protein expression (Western Blot),TLR2 protein,increases expression
same,CD14 protein expression (Western blot),"CD14 protein; 1,25D3 100 nM, monolayer keratinocyte extracts",increases expression
same,CD14 protein expression (Western blot),"CD14 protein; 1,25D3 10^−8M and butyrate 2 mM, 24 hours",increase in CD14 protein expression
same,CD14 transcript abundance,CD14,show an increase
same,TLR2 transcript abundance,TLR2,show an increase
same,clinical or histological evidence of inflammation,[1],did not induce clinical or histological evidence of inflammation
same,cathelicidin peptide expression (immunostaining),cathelicidin,increase in cathelicidin peptide expression
same,suppression of S. aureus growth by protein extracts of treated cells,"S. aureus DmprF; cells treated with 1,25D3 (10^−8M) and butyrate (2 mM), 24 hours",maximal ability to suppress the growth
same,antimicrobial activity of the agents themselves,S. aureus DmprF; without cell lysate,did not show antimicrobial activity
